Patent EP0241395A2, “Sweeteners derived from n-phenylguanidinoacetic and n-phenylethananamidinacetic acids, and compositions containing such sweeteners” (UNIVERSITE CLAUDE BERNARD - LYON 1, priority 1986, dated 1987)

Tested on: groupe de huit goûteurs expérimentés
Experiment: Sweetening power judged by a panel of eight experienced tasters against a sucrose reference solution
Type: in vivo
Settings: weight basis; for Pouvoir édulcorant: Table II, relative to a 2 % sucrose solution; for pouvoir édulcorant, sur une base pondérale: approximate
From the text: Le pouvoir édulcorant des composés préparés dans les exemples suivants a été évalué par un groupe de huit goûteurs expérimentés. Pour cela, les composés, en solution aqueuse à des concentrations variables, sont comparés, sur le plan gustatif, à une solution témoin de saccharose à 2 % et dans certains cas à 5 % et 10 %, c'est-à-dire à des concentrations correspondant à celles utilisées lors d'un usage courant. Le pouvoir sucrant des édulcorants de synthèse varie en effet suivant la concentration de la solution de saccharose utilisée comme référence. Le pouvoir édulcorant du composé testé par rapport au saccharose correspond alors au rapport pondéral qui existe entre le composé et le saccharose à égale intensité édulcorante, c'est-à-dire quand les saveurs sucrées de la solution du composé testé et de la solution témoin de saccharose sont considérées, par une majorité de goûteurs, avoir la même intensité édulcorante.

[1] = by comparison with a 2 % sucrose solution
[2] = by comparison with a 5 % sucrose solution
[3] = by comparison with a 10 % sucrose solution

Row | Compound | Pouvoir édulcorant | pouvoir édulcorant, sur une base pondérale [1] | pouvoir édulcorant, sur une base pondérale [2] | pouvoir édulcorant, sur une base pondérale [3]
1 | N#Cc1ccc(N=C(NCC(=O)O)NC2CCCCCCC2)cc1Cl [Exemple 49, acide N-[N-cyclooctylamino(3-chloro-4-cyanophénylimino)méthyl]-2-aminoéthanoïque] | 100000 | ~100 000 fois celui du saccharose | – | –
2 | O=C(O)CNC(=C[N+](=O)[O-])Nc1cc(Cl)cc(Cl)c1 [Exemple 29, acide N-[2-nitro(3,5-dichlorophénylamino)éthényl]-2-aminoéthanoïque] | 400 | ~400 fois celui du saccharose | – | –
3 | Cc1ccc(N=C(NCC(=O)O)N[C@@H](C)c2ccccc2)cc1 [Exemple 12, acide N-[N-(S)-a-méthylbenzylamino (4-méthylphénylimino)méthyl]-2-aminoéthanoïque] | 800 | ~800 fois celui du saccharose | – | –
4 | C[C@H](NC(=Nc1cc(Cl)cc(Cl)c1)NCC(=O)O)C1CCCCC1 [Exemple 63, acide N-[N-(S)-l-cyclohexyléthylamino(3,5-dichlorophénylimino)méthyl]-2-aminoéthanoïque] | 70000 | ~70 000 fois celui du saccharose | – | –
5 | O=C(O)CNC(=Nc1cc(Cl)cc(Cl)c1)Nc1cc(Cl)cc(Cl)c1 [Exemple 81, acide N-[N-3,5-dichlorophénylamino (3,5-dichlorophénylimino)méthyl]-2-aminoéthanoïque] | 1000 | ~1 000 fois celui du saccharose | – | –
6 | CC1(NC(=Nc2ccc(C#N)cc2)NCC(=O)O)CCCCC1 [Exemple 67] | 100 | ~100 fois celui du saccharose | – | –
7 | Cc1cc(C)cc(N=C(NCC(=O)O)N(C)Cc2ccccc2)c1 [Exemple 88, acide N-[N-méthyl-N-benzylamino (3,5-diméthylphénylimino)méthyl]-2-aminoéthanoïque] | 5000 | ~5 000 fois celui du saccharose | – | –
8 | C[C@H](NC(=Nc1ccc(Cl)cc1)NCC(=O)O)c1ccccc1 [Exemple 13, acide N-[N-(S)-α-méthylbenzylamino (4-chlorophénylimino)méthyl]-2-aminoéthanoïque] | 3000 | ~3 000 fois celui du saccharose | – | –
9 | N#Cc1ccc(N=C(NCC(=O)O)N2CCCCC2)cc1 [Exemple 83, acide N-[N,N-(pentaméthylène)amino (4-cyanophénylimino)méthyl]-2-aminoéthanoïque] | 200 | ~200 fois celui du saccharose | – | –
10 | N#Cc1ccc(N=C(NCC(=O)O)NCC23CC4CC(CC(C4)C2)C3)cc1 [Exemple 72, acide N-[N-(l-adamantylméthyl)amino(4-cyanophénylimino)méthyl]-2-aminoéthanoïque] | 23000 | ~23 000 fois celui du saccharose | – | –
11 | N#Cc1ccc(NC(=NC2CCCCCCC2)NCC(=O)O)cc1 [Exemple 47, acide N-[N-cyclooctylamino-(4-cyanophénylimino)méthyl]-2-aminoéthanoïque] | 170000 | ~170 000 fois celui du saccharose | ~130 000 fois celui du saccharose | ~100 000 fois celui du saccharose
12 | CN(C(=Nc1ccc(C#N)cc1)NCC(=O)O)c1ccccc1 [Exemple 74, acide N-[N-(N-méthyl-N-phénylamino) (4-cyanophénylimino)méthyl]-2-aminoéthanoïque] | 18000 | ~18 000 fois celui du saccharose | – | –
13 | N#Cc1ccc(N=C(NCC(=O)O)NC2CCc3ccccc32)cc1 (stereo not drawn) [Exemple 70, acide N-[N-(1-indanyl)amino(4-cyanophénylimino)méthyl]-2-aminoéthanoïque] | 5000 | ~5 000 fois celui du saccharose | – | –
14 | CCc1cccc(N=C(NCC(=O)O)N[C@@H](C)c2ccccc2)c1 [Exemple 5, acide N-[N-(S) -α-méthylbenzylamino (3-éthylphénylimino)méthyl]-2-aminoéthanoïque] | 4 500 | ~4 500 fois celui du saccharose | – | –
15 | CC1(C)SC(C)(C)C1NC(=Nc1ccc(C#N)cc1)NCC(=O)O [Exemple 78, acide N-[N-(2,2,4,4-tétraméthylthiacyclobut-3-yl)amino(4-cyanophénylimino)méthyl]-2-amino-éthanoïque] | 700 | ~700 fois celui du saccharose | – | –
16 | O=C(O)CNC(=Nc1ccc(Cl)cc1)NCC1CCCCC1 [Exemple 58, acide N-[N-cyclohexylméthylamino(4-chlorophénylimino)méthyl]-2-aminoéthanoïque] | 3500 | ~3 500 fois celui du saccharose | ~2 700 fois celui du saccharose | ~1 500 fois celui du saccharose
17 | C[C@H](NC(=Nc1ccccc1)NCC(=O)O)c1ccccc1 [Exemple 1, acide N-[N-(S)-α-méthylbenzylamine (phénylimino)méthyl]-2-aminoéthanoïque] | 5000 | ~5 000 fois celui du saccharose | – | –
18 | COc1cccc(N=C(NCC(=O)O)N[C@@H](C)c2ccccc2)c1 [Exemple 9, acide N-[N-(S)-ot-méthylbenzylamino (3-méthoxyphénylimino)méthyl]-2-aminoéthanoïque] | 4 500 | ~4 500 fois celui du saccharose | – | –
19 | N#Cc1ccc(N=C(NCC(=O)O)NC2CCCCCC2)cc1 [Exemple 45, acide N-[N-cycloheptylamino(4-cyanophénylimino)méthyl]-2-aminoéthanoïque] | 60000 | ~60 000 fois celui du saccharose | – | –
20 | Cc1ccccc1N=C(NCC(=O)O)Nc1ccc(C#N)cc1 [Exemple 64, acide N-[N-(2-méthylphényl)amino (4-cyanophénylimino)méthyl]-2-aminoéthanoïque] | 5000 | ~5 000 fois celui du saccharose | – | –
21 | Cc1cccc(N=C(NCC(=O)O)N[C@@H](C)c2ccccc2)c1 [Exemple 4, acide N-[N (S)-α-méthylbenzylamino (3-méthylphénylimino)méthyl]-2-aminoéthanoïque] | 12000 | ~12 000 fois celui du saccharose | – | –
22 | O=C(O)CN=C(NCC1CCCCC1)Nc1ccc(C(=O)O)cc1 [Exemple 61, acide N-[N-cyclohexylméthylamino(4-carboxyphénylimino)méthyl]-2-aminoéthanoïque] | 50 | ~50 fois celui du saccharose | – | –
23 | COc1ccc(N=C(NCC(=O)O)N[C@@H](C)c2ccccc2)cc1 [Exemple 19, acide N-[N-(S)-α-méthylbenzylamino (4-méthoxyphénylimino)méthyl]-2-aminoéthanoïque] | 2 100 | ~2100 times sucrose | – | –
24 | CC(NC(=Nc1cc(Cl)cc(Cl)c1)N[C@H](C)C(=O)O)c1ccccc1 (stereo partly drawn) [Exemple 86, acide (R)-N-[N-(S)-α-méthylbenzylamino(3,5-dichlorophénylimino)méthyl]-2-aminopropanoïque] | 120 | ~120 fois celui du saccharose | – | –
25 | O=C(O)CNC(=Nc1cc(Cl)cc(Cl)c1)NCC1CCCCC1 [Exemple 57, acide N-[N-cyclohexylméthylamino (3,5-dichlorophénylimino)méthyl]-2-aminoéthanoïque] | 35000 | ~35 000 fois celui du saccharose | – | –
26 | N#Cc1ccc(N=C(NCC(=O)O)NCC2CCCCC2)cc1 [Exemple 59, acide N-[N-cyclohexylméthylamino(4-cyanophénylimino)méthyl]-2-aminoéthanoïque] | 35000 | ~35 000 fois celui du saccharose | ~28 000 fois celui du saccharose | ~17 000 fois celui du saccharose
27 | C[C@H](NC(=Nc1ccc(Cl)c(Cl)c1)NCC(=O)O)c1ccccc1 [Exemple 23, acide N-[N-(S) -α-méthylbenzylamino (3,4-dichlorophénylimino)méthyl]-2-aminoéthanoïque] | 17000 | ~17 000 fois celui du saccharose | – | –
28 | C[C@H](NC(=Nc1ccc([N+](=O)[O-])cc1)NCC(=O)O)c1ccccc1 [Exemple 18, acide N-[N-(S)-a-méthylbenzylamino (4-nitrophénylimino)méthyl]-2-aminoéthanoïque] | 7000 | ~7 000 fois celui du saccharose | – | –
29 | C[C@H](N=C(NCC(=O)O)Nc1ccc(F)cc1)c1ccccc1 [Exemple 17, acide N-[N-(S)-α-méthylbenzylamine (4-fluorophénylimino)méthyl]-2-aminoéthanoïque] | 4000 | ~4 000 fois celui du saccharose | – | –
30 | O=C(O)CNC(=Nc1ccccc1)NC1CCCCC1 [Exemple 42, acide N-[N-cyclohexylamino(phénylimino)méthyl]-2-aminoéthanoïque] | 100 | ~100 fois celui du saccharose | – | –
